The test system of this experiment is insulin-GLase-expressed MIN6 cells (mouse pancreatic β cells). The experiment in a line: Secretion of insulin-GLase fusion protein from transformed MIN6 cells, luminescence (luciferase) activity in the medium. The format is cell-based. The following applies: glibenclamide in low glucose-modified KRHB buffer; aliquots taken 0-30 minutes; control 2 mM glucose; FIG. 9. Here is the method:
Mouse pancreatic β cells, MIN6 strains, were cultured in high glucose DMEM (manufactured by Sigma) supplemented with 10% fetal calf serum (manufactured by Invitrogen) and 50 μM of 2-mercaptoethanol. The expression vector obtained in EXAMPLE 1-1 was transfected to the MIN6 cell line using LipofectAMINE 2000 (manufactured by Invitrogen). After the transfection, the cells were incubated in a CO2 incubator at 37° C. for 24 hours. The secretion expression of the fusion Gaussia luciferase protein in the transformant was confirmed by measuring the luminescence activity with a Luminometer AB2200 (manufactured by Atto Corporation) using coelenterazine as a luminescent substrate, in accordance with the method described in Biochem. Biophys. Res. Commun., 365, 96-101 (2007). As a result, the luminescence activity in the cultured medium by high glucose (20 mM glucose) stimulation to the transformed MIN6 cells increased by about 7 times as compared to that prior to the treatment (FIG. 1). […] Glibenclamide, which is a sulfonylurea type hypoglycemic agent, promotes the secretion of endogenous insulin to lower blood glucose levels. This promotion of insulin secretion was examined using the insulin-GLase-expressed MIN6 cells to assess the effect. […]

SMILES strings stand for the structures.

Turning to `COc1ccc(Cl)cc1C(=O)NCCc1ccc(S(=O)(=O)NC(=O)NC2CCCCC2)cc1` [glibenclamide, Glibenclamide], the “insulin secretion (luciferase activity of secreted insulin-GLase)” value is reported as “promoted”.

The values are drawn from US9181318B2, “Method of screening a drug such as insulin secretagogue” (JNC Corporation, priority 2009, dated 2015).
